Assays:
[1] = Antibiotic iontophoresis in sheep tibia, antibiotic concentration in bone samples; details: 1% solution, 100 volts
Method: Quantitative analysis was then carried out to test iontophoresis as a means of antibiotic delivery in allograft bone. Specimens of sheep tibia were prepared as described above. […] A potential difference of 100 volts was applied for 1 minute, 5 minutes or 10 minutes with controls being set up the same way for 10 minutes except no potential difference was applied. A recording of current passed for each specimen was made.
Each sample was then washed in water and dried. Samples from 10 the endosteal and periosteal surfaces were then taken by drilling the bone using a 3 mm low speed drill, in 10 positions on each surface, and crushed to a fine powder. To a known mass of each sample was added distilled water (2 ml) and the sample agitated using ultrasound. The sample was then centrifuged and the supernatant removed and the process repeated a further 2 times. The last wash was left to soak for 12 hours before centrifuging. […] The supernatant solutions were then analysed for antibiotic content; for gentamicin using Fluorescence Polarisation Immuno Assay (Abbot Axsym Analyser); and for flucloxacillin the assays were performed using High Performance Liquid Chromatography (HPLC) technique. From the levels in the supernatant solutions, the antibiotic concentrations in the bone samples were calculated. […]

Staphylococcus aureus = details: varies with different phage types; cited from earlier work

For gentamicin Sulphate, the “plateau level in endosteal and periosteal specimens” value [1] is listed as “about 150 mg/Kg” and the minimum inhibitory concentration (Staphylococcus aureus) is listed as “approximately 0.25 mg/L”.

Source: patent US6602296B1, “Chemical supplementation of bone” (The University of Western Australia, priority 1997, dated 2003)
